Data as given in PMC6559944 (Journal of medicinal chemistry, 2019).
“Also recorded” adds a separate entry of the source. Like-named read-outs stand apart in the source and are kept apart here.

Columns and labels:
[1] = tested on: Nluc-expressing C. parvum; settings: for Efficacy (reduction in oocyst shedding / infection), in words: oral, 5 days, doses of Table 3
[2] = mice, 25 mg/kg PO, feces collected 24 h
[3] = mouse, in vivo, 25 mg/kg; for Half Life: po
[4] = tested on: human ether-á-go-go related gene (hERG); settings: cited from earlier work
[5] = mouse, in vivo
[6] = mouse, in vivo; remark: listed apart in the source
[7] = rat
[8] = IFN-γ KO mice, 60 mg/kg QD for 5 days

CCOc1ccc2cc(-c3nn(C(C)CCO)c(N)c3C(N)=O)ccc2c1 (centres unmarked) [Compound 9, 5-amino-3-(6-ethoxynaphthalen-2-yl)-1-(4-hydroxybutan-2-yl)-1H-pyrazole-4-carboxamide]
Efficacy in words ([1]; IFN-γ KO mice, 30 mg/kg BID for 5 days): remain a full log above the LLOD | Efficacy in words [1, 8]: efficacious | Efficacy (reduction in oocyst shedding / infection), in words ([1]; IFN-γ KO mice): significant reduction in oocyst shedding

CCOc1ccc2cc(-c3nn(C(C)(C)CO)c(N)c3C(N)=O)cnc2c1 [Compound 19, 5-amino-3-(7-ethoxyquinolin-3-yl)-1-(1-hydroxy-2-methylpropan-2-yl)-1H-pyrazole-4-carboxamide]
Fecal concentration from 25 mg/kg dose [2]: 2.9 µM

CCOc1ccc2cc(-c3nn(CC4CC4)c(N)c3C(N)=O)ccc2c1 [Compound 27, 5-amino-1-(cyclopropylmethyl)-3-(6-ethoxynaphthalen-2-yl)-1H-pyrazole-4-carboxamide]
Fecal concentration from 25 mg/kg dose [2]: 54 µM | Efficacy (reduction in oocyst shedding / infection), in words ([1]; IFN-γ KO mice): Failed efficacy

5-amino-3-(2-cyclopropoxyquinolin-6-yl)-1-(4-hydroxybutan-2-yl)-1H-pyrazole-4-carboxamide [Compound 10]
Fecal concentration from 25 mg/kg dose [2]: 4.5 µM | Oral Clearance [3]: 0.1 mL/min | Half Life [3]: 2.047 h

CCOc1ccc2cc(-c3nn(CC4CCN(C)CC4)c4ncnc(N)c34)ccc2c1 [BKI 1294]
hERG activity in vitro [4]: has shown activity against the human ether-á-go-go related gene (hERG) in vitro

CCOc1ccc2cc(-c3nn(C(C)CCO)c(N)c3C(N)=O)cnc2c1 (centres unmarked) [Compound 7, 5-amino-3-(7-ethoxyquinolin-3-yl)-1-(4-hydroxybutan-2-yl)-1H-pyrazole-4-carboxamide]
Fecal concentration from 25 mg/kg dose [2]: 1.1 µM | Efficacy (reduction in oocyst shedding / infection), in words ([1]; IFN-γ KO mice): significant reduction in oocyst shedding

CCOc1ccc2cc(-c3nn(C(C)(C)CO)c(N)c3C(N)=O)ccc2n1 [Compound 20, 5-amino-3-(2-ethoxyquinolin-6-yl)-1-(1-hydroxy-2-methylpropan-2-yl)-1H-pyrazole-4-carboxamide]
Fecal concentration from 25 mg/kg dose [2]: 0.41 µM | Efficacy in words ([1]; IFN-γ KO mice, 10 mg/kg BID): failed to provide a significant reduction from initial infection levels | Efficacy in words ([1]; IFN-γ KO mice, 20 mg/kg BID): failed to provide a significant reduction from initial infection levels | Efficacy in words [1, 8]: efficacious to the LLOD | Efficacy (reduction in oocyst shedding / infection), in words ([1]; IFN-γ KO mice): significant reduction in oocyst shedding

5-amino-3-(7-cyclopropoxyquinolin-3-yl)-1-(4-hydroxybutan-2-yl)-1H-pyrazole-4-carboxamide [Compound 11]
Efficacy (reduction in oocyst shedding / infection), in words ([1]; IFN-γ KO mice): significant reduction in oocyst shedding | Oral Clearance [3]: 0.7 mL/min | Half Life [3]: 1.42 h

CC(C)(C)n1nc(-c2ccc3cc(OC4CC4)ccc3c2)c(C(N)=O)c1N [Compound 25, 5-amino-1-(tert-butyl)-3-(6-cyclopropoxynaphthalen-2-yl)-1H-pyrazole-4-carboxamide]
Fecal concentration from 25 mg/kg dose [2]: 0.42 µM | CBC and serum chemistry results [5]: within the normal range | Histological analysis of all major organs [5]: no abnormalities | Observable signs of toxicity ([5]; 100 mg/kg): No signs of toxicity were observed | Observable signs of toxicity ([5]; 250 mg/kg): Minor signs of toxicity | Efficacy in words ([1]; IFN-γ KO mice, 15 mg/kg QD for 5 days): failed to reduce infections from their initial levels | Efficacy in words ([1]; IFN-γ KO mice, 30 mg/kg QD for 5 days): reduced infection to below the LLOD | Efficacy in words [1, 8]: efficacious | Efficacy (reduction in oocyst shedding / infection), in words ([1]; IFN-γ KO mice): efficacious | Plasma Concentration ([6]; 100 mg/kg): 19.9 ± 5.4 µM | Plasma Concentration ([6]; 100 mg/kg, 2 h): 49.2 ± 4.7 µM | Plasma Concentration ([6]; 250 mg/kg): 36.1 ± 16.7 µM

CCOc1ccc2cc(-c3nn(C(C)(C)C)c(N)c3C(N)=O)cnc2c1 [BKI 1517]
hERG inhibition signal in vitro [4]: did not have significant in vitro hERG inhibition signal

CCOc1ccc2cc(-c3nn(C(C)(C)CO)c(N)c3C(N)=O)ccc2c1 [Compound 21, 5-amino-3-(6-ethoxynaphthalen-2-yl)-1-(1-hydroxy-2-methylpropan-2-yl)-1H-pyrazole-4-carboxamide]
Fecal concentration from 25 mg/kg dose [2]: 7.1 µM | Efficacy (reduction in oocyst shedding / infection), in words ([1]; IFN-γ KO mice): failed to reduce infection; also recorded: Failed efficacy

CCOc1ccc2cc(-c3nn(CC(C)(C)CO)c(N)c3C(N)=O)ccc2c1 [Compound 3, 5-amino-3-(6-ethoxynaphthalen-2-yl)-1-(3-hydroxy-2,2-dimethylpropyl)-1H-pyraz-+ole-4-carboxamide]
Fecal concentration from 25 mg/kg dose [2]: 7.6 µM | Efficacy (reduction in oocyst shedding / infection), in words ([1]; IFN-γ KO mice): failed to reduce infection; also recorded: Failed efficacy, low c-Src IC50

CCOc1ccc2cc(-c3nn(C(C)(C)CCO)c(N)c3C(N)=O)ccc2c1 [Compound 15, 5-amino-3-(6-ethoxynaphthalen-2-yl)-1-(4-hydroxy-2-methylbutan-2-yl)-1H-pyrazole-4-carboxamide]
CBC and serum chemistry results [5]: within the normal range | Histological analysis of all major organs [5]: no abnormalities | Observable signs of toxicity ([5]; 150 mg/kg): Neither dose concentration showed any observable signs of toxicity | Toxicity to human cell lines (human cell lines): not toxic to a variety of human cell lines | Efficacy in words ([1]; IFN-γ KO mice, 5 mg/kg BID for 5 days): failed to provide an efficacious result | Efficacy in words ([1]; IFN-γ KO mice, 15 mg/kg BID for 5 days): failed to provide an efficacious result | Efficacy in words ([1]; IFN-γ KO mice, 30 mg/kg BID for 5 days, 30 mg/kg): efficacious; also recorded: reductions to below the LLOD | Log reduction (to below the LLOD) ([1]; IFN-γ KO mice, 60 mg/kg BID for 5 days): 4 log | Efficacy in words [1, 8]: failed to provide an efficacious result | Efficacy in words ([1]; IFN-γ KO mice, 120 mg/kg QD for 5 days): reductions to below the LLOD | Efficacy (reduction in oocyst shedding / infection), in words ([1]; IFN-γ KO mice): significant reduction in oocyst shedding

CC(C)(CO)n1nc(-c2ccc3cc(OC4CC4)ccc3c2)c(C(N)=O)c1N [Compound 24, 5-amino-3-(6-cyclopropoxynaphthalen-2-yl)-1-(1-hydroxy-2-methylpropan-2-yl)-1H-pyrazole-4-carboxamide]
Liabilities: in vivo cardiovascular [7]: In vivo cardiovascular liabilities (data not shown) | Fecal concentration from 25 mg/kg dose [2]: 3.5 µM | Efficacy (reduction in oocyst shedding / infection), in words ([1]; IFN-γ KO mice): significant reduction in oocyst shedding

CC(CCO)n1nc(-c2ccc3cc(OC4CC4)ccc3c2)c(C(N)=O)c1N (centres unmarked) [Compound 12, 5-amino-3-(6-cyclopropoxynaphthalen-2-yl)-1-(4-hydroxybutan-2-yl)-1H-pyrazole-4-carboxamide]
Fecal concentration from 25 mg/kg dose [2]: 10.3 µM | Liabilities: toxicity during efficacy study ([1]; IFN-γ KO mice efficacy study): Signs of toxicity during efficacy
